The record followed here is publication PMC10761072, “Post-transcriptional capping generates coenzyme A-linked RNA” (RNA Biology, 2023).

The target in this assay is T1, phosphopantetheine adenylyltransferase (PPAT, CoaD) (Escherichia coli, UniProt P0A6I6).
T1 construct: recombinant full-length enzyme expressed from coaD plasmid and purified; hexamer
The assay can be described thus: capping of […]-labelled 5-mer pppRNA with pPant, denaturing PAGE. The conditions noted are these: read-out: half-maximal inhibition. The format is biochemical.

T1 sequence (P0A6I6 whole entry): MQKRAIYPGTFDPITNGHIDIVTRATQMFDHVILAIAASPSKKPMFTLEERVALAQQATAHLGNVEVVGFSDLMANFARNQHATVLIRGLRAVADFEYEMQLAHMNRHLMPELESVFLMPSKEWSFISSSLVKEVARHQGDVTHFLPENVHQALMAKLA

As to `Nc1ncnc2c1ncn2[C@@H]1O[C@H](COP(=O)(O)OP(=O)(O)OP(=O)(O)O)[C@@H](O)[C@H]1O` [ATP], the IC50 was about 5 µM.
